The results in this text go back to ChEMBL document CHEMBL5500332, “Structure-based approaches for the design of 6-aryl-1-(3,4,5-trimethoxyphenyl)-1H-benzo[d][1,2,3]triazoles as tubulin polymerization inhibitors” (Eur J Med Chem, 2024).

The source made the active and inactive calls. The rule behind the calls is not given here. Some results are limits rather than exact numbers.

The test system of assay [1] is MCF7. The assay can be described thus: Antiproliferative activity against human MCF7 cells measured after 72 hrs by MTT assay. The class given is functional, cell-based. To be noted: MCF7, 72 h. On the technique in general: Tetrazolium assays rely on reduction of a dye to a coloured formazan, in cell work by metabolically active cells.
A further assay deals with A549. The assay is described as follows: Antiproliferative activity against human A549 cells measured after 72 hrs by MTT assay. It counts as functional, cell-based. The following applies: A549, 72 h.
A further assay has as its system SGC-7901. The assay is described as follows: Antiproliferative activity against human SGC-7901 cells measured after 72 hrs by MTT assay. The following applies: SGC-7901, 72 h. The class given is functional, cell-based.
The next assay deals with 4T1. The assay can be described thus: Antitumor activity against mouse 4T1 cells xenografted in BALB/c mouse model assessed as tumor growth inhibition rate at 10 mg/kg, iv measured every two days for 2 weeks relative to control. It counts as functional. To be noted: 4T1, 336 h, read-out: TGI.
The target in a further assay is Tubulin (Homo sapiens) (UniProt P68371+Q9H4B7+P0DPH7+P68366+Q13509+Q71U36+P04350+Q3ZCM7+P07437+P68363+Q9BQE3+Q6PEY2+Q13885+Q9BVA1+Q9BUF5). The assay can be described thus: Inhibition of tubulin polymerization (unknown origin) at 3 uM measured every 60 secs for 90 mins by microplate reader based analysis. The class given is protein-complex assay.
Assay [2] concerns MCF7. The assay can be described thus: Induction of cell cycle arrest in human MCF7 cells assessed as accumulation of cells at G2/M phase at 30 nM incubated for 24 hrs by PI staining based flow cytometry analysis (reference value: 14.36%). It counts as functional. A general note: Flow cytometry measures light scatter and fluorescence of single cells or particles in a stream.
In assay [3] the test system is MCF7. The assay is described as follows: Induction of cell cycle arrest in human MCF7 cells assessed as accumulation of cells at G2/M phase at 15 nM incubated for 24 hrs by PI staining based flow cytometry analysis (reference value: 14.36%). It counts as functional.
Assay [4] relates to MCF7. The assay can be described thus: Induction of cell cycle arrest in human MCF7 cells assessed as accumulation of cells at S phase at 15 nM incubated for 24 hrs by PI staining based flow cytometry analysis (reference value: 14.58 %). It counts as functional.
Assay [5] has as its system MCF7. The assay is described as follows: Induction of cell cycle arrest in human MCF7 cells assessed as accumulation of cells at G0/G1 phase at 30 nM incubated for 24 hrs by PI staining based flow cytometry analysis (reference value: 69.67%). The class given is functional.
Assay [6] deals with MCF7. The assay can be described thus: Induction of cell cycle arrest in human MCF7 cells assessed as accumulation of cells at S phase at 30 nM incubated for 24 hrs by PI staining based flow cytometry analysis (reference value: 14.58%). The class given is functional.
The subject of assay [7] is MCF7. The assay can be described thus: Induction of cell cycle arrest in human MCF7 cells assessed as accumulation of cells at G0/G1 phase at 15 nM incubated for 24 hrs by PI staining based flow cytometry analysis (reference value: 69.67%). It counts as functional.

Turning to `COc1cc(-n2nnc3ccc(-c4ccc(C)cc4)cc32)cc(OC)c1OC`, the IC50 with MCF7 [1] was found to be 0.33 µM; in the assay with A549, 1.4 µM; in the assay on SGC-7901 it was 0.529 µM.
For the molecule `COc1cc(-n2nnc3ccc(-c4ccc(C(C)=O)cc4)cc32)cc(OC)c1OC`, the values for the IC50 with MCF7 [1], with A549 and in the assay with SGC-7901 were 3.09 µM, 2.57 µM and 4.85 µM, respectively.
Turning to `COc1ccc(-c2ccc3nnn(-c4ccc(OC)c(OC)c4)c3c2)cc1O`, the IC50 with MCF7 [1] is 0.346 µM; in the assay with A549, 3.93 µM; in the assay on SGC-7901, 0.188 µM.
Turning to `COc1cc(-n2nnc3ccc(-c4cccc(F)c4)cc32)cc(OC)c1OC`, the 50% inhibitory concentration (IC50) with MCF7 [1] was determined as 7.49 µM; in the assay with A549 it was 7.25 µM; in the assay on SGC-7901 it was 2.98 µM.
For `CCOc1ccc(-c2ccc3nnn(-c4cc(OC)c(OC)c(OC)c4)c3c2)cc1` the same measures were 8.25 µM, 2.69 µM and greater than 10 µM.
For the molecule `COc1cccc(-c2ccc3nnn(-c4cc(OC)c(OC)c(OC)c4)c3c2)c1`, the IC50 with MCF7 [1] stood at 3.28 µM; in the assay with A549, 6.85 µM; in the assay on SGC-7901, 8.12 µM.
For the molecule `COc1cc(-n2nnc3ccc(-c4cccc(Cl)c4)cc32)cc(OC)c1OC`, the IC50 in the assay on MCF7 [1] worked out at 2.28 µM; in the assay on A549 it was 4.5 µM; in the assay with SGC-7901, 1.48 µM.
As for `COc1cc(-n2nnc3ccc(-c4ccc(F)cc4)cc32)cc(OC)c1OC`, the figures for the concentration for half-maximal inhibition (IC50) in the assay with MCF7 [1], with A549 and in the assay with SGC-7901 were 1.25 µM, 2.15 µM and 0.789 µM, respectively.
`CC(=O)O[C@H]1C(=O)[C@@]2(C)[C@H]([C@H](OC(=O)c3ccccc3)[C@]3(O)C[C@H](OC(=O)[C@H](O)[C@@H](NC(=O)c4ccccc4)c4ccccc4)C(C)=C1C3(C)C)[C@]1(OC(C)=O)CO[C@@H]1C[C@@H]2O` [PACLITAXEL]: the inhibition in vivo at 10 mg/kg in the assay with 4T1 was found to be 72.1%. In addition, the inhibition result on Tubulin (Homo sapiens) is “inactive”.
On to `COc1cc(-n2nnc3ccc(-c4ccc(Cl)cc4)cc32)cc(OC)c1OC`, for which the IC50 in the assay with MCF7 [1] amounted to 1.52 µM; in the assay on A549, 3.75 µM; in the assay on SGC-7901 it was 1.46 µM.
The matching figures for `COc1ccc(-c2ccc3ncn(-c4cc(OC)c(OC)c(OC)c4)c3c2)cc1O`: 0.042 µM, 0.21 µM and 0.045 µM.
For `COc1cc(-n2nnc3ccc(-c4ccccc4Cl)cc32)cc(OC)c1OC` the same measures were 8.36 µM, 9.56 µM and 6.34 µM.
Turning to `COc1cc2c(c(OC)c1OC)-c1ccc(OC)c(=O)cc1[C@@H](NC(C)=O)CC2` [COLCHICINE], the Activity in the assay on MCF7 [2] was found to be 63.44%; in the assay with MCF7 [3], 35.05%; in the assay on MCF7 [4] it was 24.77%; in the assay with MCF7 [5], 8.87%; in the assay with MCF7 [6] it was 28.2%; in the assay on MCF7 [7] it was 37.19%. Besides, the 50% inhibitory concentration (IC50) with MCF7 [1] is 0.03 µM; in the assay on SGC-7901 it was 0.012 µM.
In the case of `COc1cc(-n2nnc3ccc(-c4cccc(O)c4)cc32)cc(OC)c1OC`, the IC50 was 0.257 µM in the assay on MCF7 [1], 3.53 µM in the assay with A549 and 1.2 µM in the assay with SGC-7901.
The matching figures for `COc1ccc(-c2ccc3nnn(-c4cc(OC)c(OC)c(OC)c4)c3c2)cc1`: 0.212 µM, 1.4 µM and 0.447 µM.
Regarding `COc1ccccc1-c1ccc2nnn(-c3cc(OC)c(OC)c(OC)c3)c2c1`, the concentration for half-maximal inhibition (IC50) worked out at 3.27 µM with MCF7 [1], 6.5 µM in the assay with A549 and 1.97 µM in the assay on SGC-7901.
For `COc1cc(-n2nnc3ccc(-c4ccc([N+](=O)[O-])cc4)cc32)cc(OC)c1OC` the same measures were 3.1 µM, greater than 10 µM and 3.17 µM.
For `COc1cc(-n2nnc3ccc(-c4ccccc4)cc32)cc(OC)c1OC` the same measures were 0.242 µM, 1.99 µM and 1.82 µM.
As for `COc1cc(-n2nnc3ccc(-c4cccc(C)c4)cc32)cc(OC)c1OC`, the half-inhibitory concentration (IC50) with MCF7 [1] turned out to be 0.212 µM; in the assay with A549, 2.45 µM; in the assay on SGC-7901 it was 0.412 µM.
`COc1cc(-n2nnc3ccc(-c4ccc(C)cc4F)cc32)cc(OC)c1OC`: the IC50 with MCF7 [1] was 0.092 µM; in the assay with A549 it was 1.07 µM; in the assay on SGC-7901, 0.893 µM.
For the molecule `COc1cc(-n2nnc3ccc(-c4cccc([N+](=O)[O-])c4)cc32)cc(OC)c1OC`, the values for the IC50 with MCF7 [1], with A549 and in the assay with SGC-7901 were 3.8 µM, 1.94 µM and 6.67 µM, respectively.
On to `COc1cc(OC)cc(-n2nnc3ccc(-c4ccc(OC)c(O)c4)cc32)c1`, for which the results for the IC50 in the assay with MCF7 [1], in the assay on A549 and with SGC-7901 were 0.726 µM, 6.46 µM and 1.07 µM, respectively.
As for `COc1cc(-c2ccc3nnn(-c4cc(OC)c(OC)c(OC)c4)c3c2)cc(OC)c1OC`, the IC50 in the assay with MCF7 [1] is greater than 10 µM; with A549, 4.79 µM; in the assay with SGC-7901, greater than 10 µM.
Turning to `COc1cc(-n2nnc3ccc(-c4ccc(Cl)cc4Cl)cc32)cc(OC)c1OC`, the IC50 with MCF7 [1] was 6.57 µM; in the assay on A549 it was greater than 10 µM; in the assay with SGC-7901, 2.84 µM.
The matching figures for `COc1cc(-n2nnc3ccc(-c4ccc(O)cc4)cc32)cc(OC)c1OC`: 1.3 µM, 5.11 µM and 4.24 µM.
Turning to `COc1cc(-n2nnc3ccc(-c4ccc(C(F)(F)F)cc4)cc32)cc(OC)c1OC`, the IC50 with MCF7 [1] amounted to 3.39 µM; in the assay on A549, 5.07 µM; with SGC-7901 it was 6.61 µM.

For orientation: IC50 means the midpoint of a concentration-inhibition curve. Low values mean higher potency, high ones lower potency.
